Assay results taken from US20260256763A1, “Aromatic Amide Derivative, And Preparation Method Therefor And Use Thereof” (Zhejiang Hisun Pharmaceutical Co., Ltd., priority 2023, published 2026).
pIC50: −log10 of the molar value.

Key:
HT-29 cells = assay: Inhibition on HT-29 cell proliferation (CellTiter-Glo); format: cell-based; details: Homo sapiens, HT-29 cells (TP53 R273H mutation), 120 hours
Protocol: (§1) Influences of the compounds of the present invention on HT-29 cell proliferation were determined by the following method. HT-29 cells (containing TP53 R273H mutation) were purchased from the Cell Bank of Shanghai Institute of Biochemistry and Cell Biology, Chinese Academy of Sciences, and cultured in a McCOY's 5A culture medium containing 10% fetal bovine serum, 100 U penicillin and 100 μg/mL streptomycin. A cell viability was determined by a CellTiter-Glo® Luminescent Cell Viability Assay kit (Promega, article number G7573).
(§2) An experimental method was operated according to steps in the instruction of the kit, which was briefly described as follows: a test compound was dissolved in DMSO first to prepare a 10 mM stock solution, then the stock solution was diluted with the above McCOY's 5A culture medium to prepare a test sample, and a final concentration of the compound was in a range of 1000 nM-0.015 nM. Cells in a logarithmic growth phase were inoculated into a 96-well cell culture plate at a density of 1000 cells per well, cultured in a 5% CO2 incubator at 37° C. overnight, and then the test compound was added to continuously culture for 120 hours. After the culture was ended, 50 µL of CellTiter-Glo detection solution was added to each well, the plates were shaken for 5 minutes, and then allowed to stand for 10 minutes, and subsequently, a luminous value of each well of sample was read by a microplate reader in a Luminescence mode. By comparing with a numerical value of a control group (0.3% DMSO), a percentage inhibition rate of the compound at each concentration was calculated, and then nonlinear regression analysis was carried out based on concentration logarithm-inhibition rate of the compound in GraphPad Prism 5 software, so as to obtain an IC50 value of the compound in inhibition on cell proliferation, which are shown in Table 2.

[1] = Pharmacokinetic testing in mice; format: in vivo; details: male, mouse, ICR mice, plasma; for half-life / Cmax: 10 mg/kg, oral administration (10 mg/mL); for half-life: read-out: Half-life period T½ (converted); for Cmax: read-out: Plasma concentration Cmax; for AUC(0-inf): oral administration (10 mg/kg), read-out: Area under the curve AUC0-∞
Protocol: ICR mice were taken as test animals, and intragastrically administered with a control compound AMG650 and compounds 1, 18 and 29 of the present invention, and then drug concentrations in plasma at different moments were determined by an LC/MS/MS method, so as to study pharmacokinetic characteristics of the compounds of the present invention in the mice.
Control compound AMG650, and Compounds 1, 18 and 29.
ICR mice, male, 27.3-30.3 g, purchased from Vital River Laboratory Animal Technology Co., Ltd.
A proper amount of to-be-tested compound was weighed, proper amounts of DMA (N,N-dimethylacetamide), CrEL (polyoxyethylene 35 castor oil) and 5% GS (5% glucose injection) were added in sequence, and the obtained system was evenly mixed by ultrasonic vortex to prepare a 1 mg/mL preparation, wherein DMA, CrEL and 5% GS=10:10:80 (v:v:v).
ICR mice in each to-be-tested compound injection group (9 mice in each group) were fasted overnight and then intragastrically administered with the compound (PO, an administration dosage of the compound was 10 mg/kg and an administration volume of the compound was 10 mL/kg), and were fed 4 hours after administration.
0.25 hours, 0.5 hours, 1 hour, 2 hours, 4 hours, 8 hours, 10 hours and 24 hours before and after administration, about […] of blood was collected through an orbit, and a complete blood sample was placed in an EDTA-K2-containing anticoagulation tube. The collected blood sample was placed on ice, and plasma was centrifugally separated (centrifugation conditions: 1500 g, 10 minutes). The collected plasma was stored at −40~−20° C. before analysis.
A content of the to-be-tested compound in the plasma of the mice after intragastric administration was determined by LC-MS/MS.

OVCAR-3 cells = assay: Inhibition on OVCAR-3 cell proliferation (CellTiter-Glo); format: cell-based; details: Homo sapiens, OVCAR-3 cells (TP53 R248Q mutation), 72 hours
Protocol: as §1, with “OVCAR-3” for “HT-29”, “R248Q” for “R273H”, “an RPMI 1640” for “a McCOY's 5A”, “[…]” for “10%”
as §2, with “RPMI 1640” for “McCOY's 5A”, “72” for “120”, “μL” for “µL”, “1.” for “2.”

recombinant human KIF18A = molecular target: T1, recombinant human KIF18A (Homo sapiens, UniProt Q8NI77); assay: Inhibition on KIF18A enzyme activity (ADP-Glo); format: biochemical; details: recombinant human KIF18A 100 nM, ATP 60 μM
T1 construct: purchased GenScript
T1 sequence (Q8NI77 whole entry): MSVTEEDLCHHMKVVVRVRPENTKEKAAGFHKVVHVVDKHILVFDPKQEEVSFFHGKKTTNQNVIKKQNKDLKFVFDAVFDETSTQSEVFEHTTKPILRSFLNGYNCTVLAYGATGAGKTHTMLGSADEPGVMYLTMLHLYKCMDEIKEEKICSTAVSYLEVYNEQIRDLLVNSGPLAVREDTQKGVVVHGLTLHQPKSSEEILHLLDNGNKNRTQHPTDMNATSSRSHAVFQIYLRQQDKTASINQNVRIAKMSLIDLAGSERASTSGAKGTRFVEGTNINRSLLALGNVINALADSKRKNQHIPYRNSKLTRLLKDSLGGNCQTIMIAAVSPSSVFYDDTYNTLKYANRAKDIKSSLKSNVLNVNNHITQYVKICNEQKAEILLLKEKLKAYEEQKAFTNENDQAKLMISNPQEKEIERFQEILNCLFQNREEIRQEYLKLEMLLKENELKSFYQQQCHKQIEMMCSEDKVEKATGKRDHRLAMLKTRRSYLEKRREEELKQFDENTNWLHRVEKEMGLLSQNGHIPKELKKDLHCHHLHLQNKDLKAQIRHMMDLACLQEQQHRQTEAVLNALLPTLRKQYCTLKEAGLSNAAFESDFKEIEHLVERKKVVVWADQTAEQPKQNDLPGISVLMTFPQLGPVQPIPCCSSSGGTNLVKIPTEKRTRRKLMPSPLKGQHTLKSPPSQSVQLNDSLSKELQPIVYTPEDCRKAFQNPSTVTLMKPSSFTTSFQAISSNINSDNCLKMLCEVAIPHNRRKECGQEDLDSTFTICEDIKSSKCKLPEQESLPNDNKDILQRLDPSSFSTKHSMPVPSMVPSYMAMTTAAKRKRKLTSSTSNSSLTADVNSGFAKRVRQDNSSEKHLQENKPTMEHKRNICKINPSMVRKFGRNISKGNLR
T1 sequence (P68363 whole entry partner): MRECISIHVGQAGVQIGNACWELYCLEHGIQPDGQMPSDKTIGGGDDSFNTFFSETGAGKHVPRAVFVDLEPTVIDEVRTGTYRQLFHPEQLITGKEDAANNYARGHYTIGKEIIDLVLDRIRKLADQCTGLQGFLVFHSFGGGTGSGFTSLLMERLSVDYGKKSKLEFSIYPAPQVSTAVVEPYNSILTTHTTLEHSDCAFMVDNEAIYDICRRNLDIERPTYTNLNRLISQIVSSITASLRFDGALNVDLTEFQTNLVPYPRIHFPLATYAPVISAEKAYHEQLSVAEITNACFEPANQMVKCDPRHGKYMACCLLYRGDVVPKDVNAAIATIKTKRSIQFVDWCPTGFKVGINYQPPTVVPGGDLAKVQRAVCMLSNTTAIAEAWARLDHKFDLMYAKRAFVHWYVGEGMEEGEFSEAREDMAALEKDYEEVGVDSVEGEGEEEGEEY
T1 sequence (Q9BVA1 whole entry partner): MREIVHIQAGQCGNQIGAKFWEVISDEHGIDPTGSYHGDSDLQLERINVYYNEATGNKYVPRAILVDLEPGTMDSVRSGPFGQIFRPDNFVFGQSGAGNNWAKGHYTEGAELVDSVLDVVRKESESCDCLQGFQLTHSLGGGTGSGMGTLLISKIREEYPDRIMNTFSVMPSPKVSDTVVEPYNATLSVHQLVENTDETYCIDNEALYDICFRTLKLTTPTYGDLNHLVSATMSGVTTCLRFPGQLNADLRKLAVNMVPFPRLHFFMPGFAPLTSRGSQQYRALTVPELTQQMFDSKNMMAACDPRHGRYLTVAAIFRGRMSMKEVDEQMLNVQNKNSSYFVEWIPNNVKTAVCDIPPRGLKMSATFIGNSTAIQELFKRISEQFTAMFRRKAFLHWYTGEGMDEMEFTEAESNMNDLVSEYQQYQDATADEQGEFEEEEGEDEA
Protocol: Inhibition degrees of the compounds of the present invention on recombinant human KIF18A enzyme activity in vitro were determined by the following method. An ADP-Glo™ Kinase Assay kit (article number V9102) from Promega Company was used in this method. Detailed experimental operation can be referred to the instruction of the kit.
The reaction was carried out in a 384-well microplate. The test compound and the recombinant human KIF18A protein (final concentration of 100 nM, entrusted to GenScript for expression) were added into the wells and incubated at room temperature for 20 minutes, and subsequently, ATP solution (component V915A from the ADP-Glo™ Kinase Assay kit, final concentration of 60 μM) was added to the reaction solution and the obtained system was incubated at room temperature for 20 minutes. Subsequently, 5 μL of ADP-Glo Reagent was added to the reaction system and the obtained system was incubated at room temperature for 50 minutes. Then, 10 μL of Kinase Detection Reagent was added to the reaction system, and the obtained system was incubated at room temperature for 30 minutes. After the incubation was ended, a chemiluminiscence intensity value of each well was determined by a microplate reader in a Luminescence mode.

[2] = tested on: OVCAR-3 human ovarian adenocarcinoma tumor fragment xenograft; assay: Pharmacodynamic testing in OVCAR-3 tumor fragment xenograft model; format: in vivo, BALB/c nude mice; details: 16 days after administration; for Tumor volume (x ± S): mean ± standard error, in mm³
Protocol: An anti-tumor effect of Compound 1 of the present invention in a BALB/c nude mouse animal model with subcutaneous OVCAR-3 human ovarian adenocarcinoma tumor fragment xenograft was evaluated.
BALB/c nude mice, female, 6-7 weeks old, purchased from Jiangsu Gempharmatech Biotechnology Co., Ltd.
Mice in a solvent control group were given DMA:CrEL:5% GS=10:10:80 (v:v:v).
AMG650: a proper amount of AMG-650 was weighed, proper amounts of DMA, CrEL and 5% GS were added in sequence, and the obtained system was evenly mixed by ultrasonic vortex to prepare 0.8 mg/mL and 0.4 mg/mL preparations respectively, wherein DMA, CrEL and 5% GS=10:10:80 (v:v:v).
Compound 1: a proper amount of Compound 1 was weighed, proper amounts of DMA, CrEL and 5% GS were added in sequence, and the obtained system was evenly mixed by ultrasonic vortex to prepare 0.8 mg/mL and 0.4 mg/mL preparations respectively, wherein DMA, CrEL and 5% GS=10:10:80 (v:v:v).
An appropriate OVCAR-3 tumor-bearing animal was selected, a 1 mm×1 mm×1 mm OVCAR-3 tumor fragment was acquired aseptically and placed into normal saline for later use, which was used for subcutaneous tumor inoculation in a right side of back of the BALB/c nude mice.
About 1 mm×1 mm×1 mm OVCAR-3 tumor fragment was subcutaneously inoculated in the right side of back of the female BALB/c nude mice. When an average tumor volume reached about 100-250 mm^3, the mice were randomly grouped according to the tumor size, with 6 mice in each group.
Animals in each group were given the test compound once per day according to an animal weight at a fixed time every day by oral administration (po), the animals started to be administered with the test compound for the first time on the day of grouping for 22 consecutive days, and the animal weight was recorded every day. • The 1st group (G1) was a solvent control group; • The 2nd group (G2) and the 3rd group (G3) were orally administered with AMG-650 at administration dosages of 8 mg/kg and 4 mg/kg respectively once per day (QD); and • The 4th group (G4) and the 5th group (G5) were orally administered with Compound 1 at administration dosages of 8 mg/kg and 4 mg/kg respectively once per day (QD).
Tumor formation at an inoculation site of the animals in each group was observed, and a tumor volume was measured twice per week, and calculated according to the following formula: • a tumor volume (TV), a relative tumor volume (RTV), a relative tumor proliferation rate (T/C) and a relative tumor inhibition rate (TGI) were calculated according to the following formulas:
TV (tumor volume)=½×a×b^2, wherein a and b respectively represented a tumor length and a tumor width; (1)
RTV (relative tumor volume)=Vt/V0, wherein V0 was a tumor volume measured at the time of grouping, and Vt was a tumor volume in each measurement; (2)
T/C (%)=TRTV/CRTV×100%, wherein TRTV was RTV of a treatment group, and CRTV was RTV of a solvent control group; and (3)
TGI %=(1−T/C)×100%, wherein T and C were relative tumor volumes of the treatment group and the solvent control group at a specific time point respectively. (4)

| Compound | pIC50 (HT-29 cells) | half-life [1] | Cmax [1] | AUC(0-inf) [1] | pIC50 (OVCAR-3 cells) | pIC50 (recombinant human KIF18A) | TGI ([2]; 4 mg/kg po QD) | Tumor volume (x ± S) ([2]; 4 mg/kg po QD) | TGI ([2]; 8 mg/kg po QD) | Tumor volume (x ± S) ([2]; 8 mg/kg po QD) |
| --- | --- | --- | --- | --- | --- | --- | --- | --- | --- | --- |
| CCS(=O)(=O)Nc1ccc(C(=O)Nc2cc(N3CCC(F)(F)CC3)c3nn(C)cc3c2)c(N2CCC3(CC2)CC3)c1 [Example 18, N-(7-(4,4-difluoropiperidin-1-yl)-2-methyl-2H-indazol-5-yl)-4-(ethylsulfonamido)-2-(6-azaspiro[2.5]octan-6-yl)benzamide] | 8.11 | 5.2 h | 3030 ng/mL | 45900 ng·h/mL | 8.48 |  |  |  |  |  |
| O=C(Nc1cc2c(c(N3CCC(F)(F)CC3)c1)OCC2)c1ccc(NS(=O)(=O)CCO)cc1N1CCC2(CC1)CC2 [Example 29, N-(7-(4,4-difluoropiperidin-1-yl)-2,3-dihydrobenzofuran-5-yl)-4-((2-hydroxyethyl)sulfamine)-2-(6-azaspiro[2.5]octan-6-yl)benzamide] |  | 1.24 h | 6960 ng/mL | 25900 ng·h/mL |  | 6.50 |  |  |  |  |
| Cc1cc(NC(=O)c2ccc(NS(=O)(=O)CCO)cc2N2CCC3(CC2)CC3)nc(N2CCC(F)(F)CC2)n1 [AMG 650, reference compound] |  |  |  |  |  |  | 15.3% | 511 ± 49 | 60.5% | 243 ± 35 |
